Reference: US6620424B1, “Process for producing glycolytic metabolism regulators” (Suntory Limited, priority 1998, dated 2003)

Experiments:
Male SD rats [1] = assay: Evaluation of the suppressive effect on blood glucose elevation in rats (glucose challenge); assay type: in vivo, rat
Description: Male SD rats (weighing 300 to 400 g), operated on for blood sampling cannulation into the femoral artery, were used. After an overnight fast, itaconic acid (500 mg/kg) was orally administered. Thirty minutes later, glucose (4 g/kg) was ingested, and changes in blood glucose were observed. In the control group, purified water, free of itaconic acid, was orally administered in the same volume. Experiments were conducted in groups of 4 rats each, and the results were indicated as mean values±standard deviations. The test for a significant difference was performed by the analysis of variance of data, followed by Student t-test. Differences were taken as significant when p values were less than 0.05 (*p<0.05, **p<0.01).

Male SD rats [2] = assay: Evaluation of preventive effect on obesity in rats (3 weeks, itaconic acid in drinking water); assay type: in vivo, rat
Description: Male SD rats (8-week-old) were individually reared, commencing immediately after arrival. After a week of acclimatization, the animals were divided into a control group and an itaconic acid group (8 animals per group), and reared for 3 weeks, with feed and drinking water of the itaconic acid concentration shown in [Table 1] being given ad lib.
During the 3-week rearing period, the body weight, the feed intake, and the water intake were measured daily or every other day. On the final day, the animal was placed on a 17-hour fast, the blood was sampled, and the plasma was analyzed for blood glucose, hepatic function, and lipid-related parameters. Furthermore, the weight of the livers, kidneys, fat around the kidneys, and fat around the intestines was measured. The experiments were conducted in groups of 8 rats each, and the results were indicated as mean values±standard deviations. The test for a significant difference was performed by the analysis of variance of data, followed by Student t-test. The level of significance was set at 0.05.
The plasma collected at completion of the experiments was measured for various biological parameters. […] The experiments were conducted in groups of 8 rats each, and the results were indicated as mean values±standard deviations. The test for a significant difference was performed by the analysis of variance of data, followed by Student t-test. The level of significance was set at 0.05.

[3] = tested on: streptozotocin-induced diabetes rats (male Wistar rats); assay: Evaluation of suppressive effect on blood glucose elevation in streptozotocin-induced diabetes rats; assay type: in vivo, rat
From the text: Streptozotocin is an antibiotic derived from Streptomyces achromogenes, one of […]. Its action of inducing insulin-dependent diabetes mellitus was reported for the first time in 1963 by Rakieten et al. (Rakieten N, Rakieten M L, Nadkarni M V, Cancer Chemother Rep 29:91-98, 1963). Since then, it has been used most commonly as a substance for inducing diabetes experimentally. The main mechanism of its diabetogenic action is ascribed to the destruction of P cells of the pancreas, thereby suppressing insulin secretion. In male Wistar rats (7-week-old), a solution of streptozotocin in 0.05 M citric acid-0.145 […] NaCl (pH 4.5) was administered into the caudal vein (50 mg/kg). The animals were individually reared, commencing immediately after administration of streptozotocin. After a lapse of 48 hours, the animals with blood glucose levels of 300 mg/dl or more were divided into a control group and an itaconic acid group (7 or 8 animals per group), and study was initiated. A rearing feed was given to the control group, and a rearing feed containing 1.38% of itaconic acid was given to the itaconic acid group, ad. lib. together with drinking water, and the animals were reared for 3 weeks.
During the 3-week rearing period, blood glucose, body weight, feed intake, and water intake were measured twice or 3 times weekly. Rats are nocturnal animals, and feeding mostly takes place at night. However, since their blood glucose fluctuates greatly depending on the elapsed time after eating, each measurement of blood glucose was made between 9:30 and 10:00 in the morning. Blood hemoglobin Alc was measured on the day after administration of streptozotocin and on the 19th day after start of the study. Hemoglobin Alc is hemoglobin having glucose attached thereto non-enzymatically, and is expressed as a percentage (%) of total hemoglobin. In humans, hemoglobin Alc is known to serve as an indicator of the mean value of blood glucose during the period from 1 to 3 months previously until blood sampling. In rats, the life of an erythrocyte is about half of that in humans, and hemoglobin Alc has been reported to reflect the mean value of blood glucose since 2 to 3 weeks previously.
The experiments were conducted in groups of 7 or 8 rats each, and the results were indicated as mean values±standard deviations. The blood glucose was expressed as changes in individual animals compared with the value found at the start of the study (grouping). The test for a significant difference was performed by the analysis of variance of data, followed by Student t-test. The level of significance was set at 0.05.

[4] = biological target: T1, rat liver type F6P2kinase (Rattus norvegicus, UniProt P07953); assay: Inhibition by itaconic acid of F6P2kinase activity catalyzing synthesis of F26BP; assay type: biochemical; details: 0.5 mM itaconic acid; 0.4 mM F6P, 2 mM ATP, 30° C.; read-out: inhibitory activity on F6P2kinase
T1 construct: made in house; host or cells: Escherichia coli
Description: The gene for rat liver type F6P2kinase was incorporated into Escherichia coli and expressed. From the E. coli cells, rat liver type F6P2kinase was purified (K. Kitamura et al., J. Biol. Chem., Vol. 264, 9799-9806, 1989). The rat liver type F6P2kinase (1.25 μg) was reacted at 30° C. in a reaction solution containing 100 mM Tris-HCl (pH 7.5), 0.1 mM EDTA, 10 mM MgCl2, 2 mM ATP, 0.4 mM F6P, and 0 to 1.5 mM itaconic acid. After lapses of 2, 4 and 6 minutes, 10 μl of the reaction mixture was transferred into a test tube containing 90 μl of 50 mM NaOH, and heated for 1 minute at 90° C. to terminate the reaction. The amount of the resulting F26BP was measured by a change in absorbance due to oxidation of NADH upon subsequent addition of glycolytic pathway enzymes. That is, 10 μl of the reaction mixture after termination of the reaction was added to 1 ml of a reaction solution containing 50 mM HEPES (pH 7.3), 0.2 mM EDTA, 5 mM MgCl2, 1 mM F6P, 1 mM PPi, 15 mU PPi-F6P phosphotransferase, 0.15 mM NADH, 1 U aldolase, 1 U glycerol-3-phosphate dehydrogenase, and 10 U triose-phosphate isomerase. The amount of F26BP was measured by a decrease in the absorbance at 340 nm (Van Schaftingen et al., Eur. J. Biochem., Vol. 129, 191-195, 1982). The activity that converts the substrate F6P to 1 μmole F26BP over 1 minute at 30° C. is defined as 1 U. The results are shown in FIG. 1.

[5] = animal studies and clinical trials; cited from earlier work
[6] = at completion of 3 weeks, FIG. 5
[7] = at completion of 3 weeks, p<0.05, FIG. 5
[8] = plasma after 3 weeks, 17-hour fast, mean ± SD, n=8
[9] = plasma after 3 weeks, 17-hour fast, mean ± SD, n=8, P < 0.05 vs control

T1 sequence (P07953 whole entry): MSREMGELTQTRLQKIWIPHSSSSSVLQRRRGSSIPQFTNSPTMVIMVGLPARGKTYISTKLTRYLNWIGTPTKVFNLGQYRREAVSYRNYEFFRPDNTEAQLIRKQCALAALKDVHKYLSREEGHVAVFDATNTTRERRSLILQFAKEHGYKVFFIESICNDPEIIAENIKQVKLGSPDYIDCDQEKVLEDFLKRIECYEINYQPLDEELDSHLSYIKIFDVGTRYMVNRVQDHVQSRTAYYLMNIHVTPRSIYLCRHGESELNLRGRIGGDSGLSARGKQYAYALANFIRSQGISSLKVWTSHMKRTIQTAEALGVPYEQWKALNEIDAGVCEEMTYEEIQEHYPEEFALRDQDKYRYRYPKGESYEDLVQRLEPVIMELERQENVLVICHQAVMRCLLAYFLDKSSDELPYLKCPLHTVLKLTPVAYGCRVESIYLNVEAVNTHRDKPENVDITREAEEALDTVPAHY

C=C(CC(=O)O)C(=O)O [itaconic acid]
initial rapid increase in blood glucose after glucose challenge (Male SD rats [1]; itaconic acid 500 mg/kg orally 30 min before glucose 4 g/kg, 30 minutes after challenge, FIG. 6): significantly curbed
blood glucose late after glucose challenge (Male SD rats [1]; itaconic acid 500 mg/kg orally, after 180 minutes and 240 minutes, versus control group): significantly high
feed intake (Male SD rats [2]; 3-week period, compared with the control group, FIG. 3): decreases in the feed intake were observed
weight of the kidneys per 100 g of body weight (Male SD rats [2]; [6]): not different between the groups
weight of the livers per 100 g of body weight (Male SD rats [2]; [6]): not different between the groups
weight of fat around the intestines per 100 g of body weight (Male SD rats [2]; [7]): significantly decreased
weight of fat around the kidneys per 100 g of body weight (Male SD rats [2]; [7]): significantly decreased
weight gain (Male SD rats [2]; from Day 9 onwards, p<0.05 against the control group, FIG. 2): significant suppression of weight gain
ALP (Male SD rats [2]; [8]): 0.3 ± 0.1 IU/l
Free cholesterol (Male SD rats [2]; [8]): 12.2 ± 2.0 mg/dL
GOT (Male SD rats [2]; [8]): 65.0 ± 12.0 IU/l
GPT (Male SD rats [2]; [8]): 13.0 ± 2.5 IU/l
LDH (Male SD rats [2]; [8]): 276 ± 82 IU/l
Total bilirubin (Male SD rats [2]; [8]): 0.19 ± 0.02 mg/dL
Total cholesterol (Male SD rats [2]; [8]): 46.3 ± 7.1 mg/dL
Triglycerides (Male SD rats [2]; plasma after 3 weeks, 17-hour fast, mean ± SD, n=8, P < 0.01 vs control): 20.9 ± 2.8 mg/dL
Blood glucose (Male SD rats [2]; [9]): 149 ± 19 mg/dL
Free fatty acids (Male SD rats [2]; [9]): 199 ± 75 mg/dL
rise in blood hemoglobin Alc ([3]; Day 19, compared with the control group, FIG. 11): significant curbing of the rise
body weight ([3]; feed containing 1.38% itaconic acid, 3 weeks, FIG. 8): not different between the groups
rise in blood glucose (change from start of study) ([3]; feed containing 1.38% itaconic acid, 3 weeks, from Day 1 onwards, p<0.05 on Days 5 and 15, FIG. 7): suppression of the rise in blood glucose was observed
feed intake ([3]; from about Day 5 onwards, compared with the control group, FIG. 9): decreases in feed intake were observed
inhibition at 500 µM [4]: ~30%

OCC(CO)N[C@H]1C[C@](O)(CO)[C@@H](O)[C@H](O)[C@H]1O [voglibose]
rapid increases (peaks) in postprandial blood glucose [5]: suppressing rapid increases (peaks) in postprandial blood glucose
